Experimental data as given in patent US5922730A, “Alkylated rapamycin derivatives” (American Home Products Corporation, priority 1998, dated 1999).
Values joined by “and” are separate entries in the source; they are usually repeats but may differ in a detail not shown here. Identical values can stand only once.

Legend:
[1] = system: Freund's Complete Adjuvant (FCA) induced arthritis; test: adjuvant arthritis standard pharmacological test procedure; type: in vivo, rats (male inbred Wistar Lewis)
Experimental: (§1) Immunosuppressive activity was evaluated in an in vitro standard pharmacological test procedure to measure lymphocyte proliferation (LAF), in an in vivo procedure to evaluate the survival time of a pinch skin graft, and in an in vivo procedure to determine inhibition of T-cell mediated inflammatory response (adjuvant arthritis).
The in vivo adjuvant arthritis standard pharmacological test procedure measures the abilty of test compounds to prevent immune mediated inflammation and inhibit or treat rheumatoid arthritis. The following briefly describes the test procedure used. A group of rats (male inbred Wistar Lewis rats) are pre-treated with the compound to be tested (1 h prior to antigen) and then injected with Freund's Complete Adjuvant (FCA) in the right hind paw to induce arthritis. The rats are then orally dosed on a Monday, Wednesday, Friday schedule from day 0-14 for a total of 7 doses. Both hind paws are measured on days 16, 23 and 30. The difference in paw volume (mL) from day 16 to day 0 is determined and a percent change from control is obtained. The left hind paw (uninjected paw) inflammation is caused by T-cell mediated inflammation and is recorded as percent change from control. The right hind paw inflammation, on the other hand, is caused by non-specific inflammation. Compounds were tested at a dose of 2 mg/kg.

[2] = system: colon (MIP 101) cancer cell line; test: inhibition of growth of human tumor cells in vitro (Sulforhodaine B); type: cell-based; conditions: MIP 101, 48 hours exposure
Experimental: (§2) Human tumor cell lines were plated in 96-well plates (250 μL well, 1-6×10^4 cells/mL) in RPMI 1640 medium, containing 5% FBS (Petal Bovine Serum). Twenty-four hours after plating, drugs were added at five log concentrations (0.01-100 μg/mL). After 48 hours exposure to drugs, cells were fixed with trichloroacteic acid, and stained with Sulforhodaine B. After washing with trichloroacetic acid, bound dye was solubilized in 10 mM Tris base and Optical Density was determined using a plate reader. Under conditions of the assay, the optical density is proportional to the number of cells in the well. IC50 s (concentrations causing 50% inhibition of cell growth) were determined from the growth inhibition plots. The assay is described in details by Philip Skehan et al., J. National Cancer Institute 82, 1107-1112, 1990.

[3] = system: ovarian (A 2780S) cancer cell line; test: as above; type: cell-based; conditions: 48 hours exposure
Experimental: as §2

[4] = system: breast (T47D) cancer cell line; test: as above; type: cell-based; conditions: 48 hours exposure
Experimental: as §2

[5] = system: pinch skin graft from male DBA/2 donors transplanted to male BALB/c recipients; test: pinch skin graft survival; type: in vivo; conditions: intraperitoneal
Experimental: as §1
The in vivo test procedure is designed to determine the survival time of pinch skin graft from male DBA/2 donors transplanted to male BALB/c recipients. The method is adapted from Brllingham R. E. and Medawar P. B., J. Exp. Biol. 28:385-402, (1951). Briefly, a pinch skin graft from the donor is grafted on the dorsum of the recipient as a homograft, and an autograft is used as control in the same region. […] Untreated recipients serve as rejection control. The graft is monitored daily and observations are recorded until the graft becomes dry and forms a blackened scab. This is considered as the rjection day. The mean graft survival time (MST -number of days±S.D.) of the drug treatment group is compared with the control group. Rapamycin treatment provides a mean graft survival (MST) of is 12.0±1.7 days.

[6] = system: Candida albicans; conditions: particularly against Candida albicans, in vitro and in vivo; cited from earlier work
[7] = system: experimental allergic encephalomyelitis model; conditions: model for multiple sclerosis; cited from earlier work
[8] = system: formation of IgE-like antibodies; conditions: in vivo; cited from earlier work
[9] = system: thymocyte proliferation (cells from the thymus, PHA and IL-1); test: comitogen-induced thymocyte proliferation procedure (LAF); type: cell-based, BALB/c mice
Experimental: Briefly, cells from the thymus of normal BAUI/c mioe are cultured for 72 hours with PHA and IL-1 and pulsed with tritiated thymidine during the last six hours. […] Cells are harvested and incorporated; radioactivity is determined. Inhibition of lymphoproliferation is assessed in percent change in counts per minute from nondrug treated controls.

COCCOCCOCCO[C@@H]1CC[C@@H](C[C@@H](C)[C@@H]2CC(=O)[C@H](C)/C=C(\C)[C@@H](O)[C@@H](OC)C(=O)[C@H](C)C[C@H](C)/C=C/C=C/C=C(\C)[C@@H](OC)C[C@@H]3CC[C@@H](C)[C@@](O)(O3)C(=O)C(=O)N3CCCC[C@H]3C(=O)O2)C[C@H]1OC [Example 3, 42-O-(2-[2-(2-methoxyethoxy)-ethoxy]-ethyl)-rapamycin]
Adjuvant Arthritis % Change (uninjected paw at day 16 versus control) ([1]; 2 mg/kg, oral, more negative = more potent): -88% | inhibition of cancer cell line growth [2]: submicromolar concentrations | inhibition of cancer cell line growth [3]: submicromolar concentrations | inhibition of cancer cell line growth [4]: submicromolar concentrations | Skin Graft MST ± S.D. (mean graft survival time) [5]: 9.8 days and 9.7 days

CO[C@H]1C[C@@H]2CC[C@@H](C)[C@@](O)(O2)C(=O)C(=O)N2CCCC[C@H]2C(=O)O[C@H]([C@H](C)C[C@@H]2CC[C@@H](O)[C@H](OC)C2)CC(=O)[C@H](C)/C=C(\C)[C@@H](O)[C@@H](OC)C(=O)[C@H](C)C[C@H](C)/C=C/C=C/C=C/1C [rapamycin]
immune-induced inflammation less than control rats ([1]; rapamycin treated rats versus control rats): 70-90% | antifungal activity [6]: antifungal activity | effect in experimental allergic encephalomyelitis model [7]: effective | inhibition of formation of IgE-like antibodies [8]: effectively inhibited | Skin Graft MST ± S.D. (mean graft survival time) [5]: 12.0 ± 1.7 days

29-O-Benzylrapamycin [Example 1]
IC50 ([9]; LAF, PHA and IL-1, 72 hours, read-out: IC50 analog): 4.2 nM | R/A (ratio of the ID50s of rapamycin to the analog) ([9]; ratio less than 1.0 means the analog is less potent than rapamycin): 0.12 | Skin Graft MST ± S.D. (mean graft survival time) [5]: 7.2 days
